Read-outs that look alike come from different tables or passages of the source.
Experiments:
[1] = test system: cholesterol biosynthesis in Hep 3B cells; test: Cholesterol biosynthesis, incorporation of [2, ^3H]acetate into [^3H]cholesterol, Hep 3B; format: cell-based, human; details: for inhibition at 10 µM / inhibition at 1 µM / inhibition at 5 µM / inhibition at 50 µM: Homo sapiens, Hep3B, read-out: percentage of inhibition of cholesterol biosynthesis
Hep 3B cells = test: Sub-G1 population and DNA fragmentation (apoptosis), Hep 3B; format: cell-based, human; details: compared with Hep G2 cells treated in the same condition (FIG. 12)
[2] = MTT cell viability assay, mouse hepatocytes (serum-free RPMI-1640); format: cell-based; details: BALB/c, isolated mouse hepatocytes
[3] = test system: cholesterol biosynthesis in Hep G2 cells; test: Cholesterol biosynthesis, incorporation of [2, ^3H]acetate into [^3H]cholesterol, Hep G2; format: cell-based, human; details: for inhibition at 10 µM / inhibition at 1 µM / inhibition at 5 µM / inhibition at 50 µM: Homo sapiens, read-out: percentage of inhibition of cholesterol biosynthesis

SMILES: CC[C@H](C)C(=O)O[C@H]1C[C@@H](C)C=C2C=C[C@H](C)[C@H](CC[C@@H]3C[C@@H](O)CC(=O)O3)[C@H]21 [Lovastatin, lovastatin]
- inhibition at 10 µM ([1]; 2 h): 94.1%
- inhibition at 10 µM ([1]; 6 h): 92.4%
- inhibition at 10 µM ([1]; 12 h): 89.5%
- inhibition at 1 µM ([1]; 24 h): 50%
- inhibition at 5 µM ([1]; 24 h): 85.4%
- inhibition at 10 µM ([1]; 24 h): 91.4%
- inhibition at 50 µM ([1]; 24 h): 95.1%
- inhibition at 1 µM ([1]; 48 h): 68.2%
- inhibition at 5 µM ([1]; 48 h): 86.2%
- inhibition at 10 µM ([1]; 48 h): 94%
- inhibition at 50 µM ([1]; 48 h): 95.5%
- suppression of cholesterol synthesis ([1]; after prolonged treatment with lovastatin): > 90%
- [^3H]cholesterol ([1]; lovastatin 1 μM, 24 hr): 29.84 10^2 dpm/10^5 cells/hr
- [^3H]cholesterol ([1]; lovastatin 1 μM, 48 hr): 18.95 10^2 dpm/10^5 cells/hr
- [^3H]cholesterol ([1]; lovastatin 5 μM, 24 hr): 8.69 10^2 dpm/10^5 cells/hr
- [^3H]cholesterol ([1]; lovastatin 5 μM, 48 hr): 8.25 10^2 dpm/10^5 cells/hr
- [^3H]cholesterol ([1]; lovastatin 10 μM, 2 hr): 3.54 10^2 dpm/10^5 cells/hr
- [^3H]cholesterol ([1]; lovastatin 10 μM, 6 hr): 4.52 10^2 dpm/10^5 cells/hr
- [^3H]cholesterol ([1]; lovastatin 10 μM, 12 hr): 6.25 10^2 dpm/10^5 cells/hr
- [^3H]cholesterol ([1]; lovastatin 10 μM, 24 hr): 5.13 10^2 dpm/10^5 cells/hr
- [^3H]cholesterol ([1]; lovastatin 10 μM, 48 hr): 3.59 10^2 dpm/10^5 cells/hr
- [^3H]cholesterol ([1]; lovastatin 50 μM, 24 hr): 2.92 10^2 dpm/10^5 cells/hr
- [^3H]cholesterol ([1]; lovastatin 50 μM, 48 hr): 2.71 10^2 dpm/10^5 cells/hr
- Sub-G1 population and DNA fragmentation (markers of cell apoptosis) (Hep 3B cells): observed in a higher percentage and lower dose of lovastatin treatment than those in Hep G2 cells
- viability at 72 h, 1 μM [2]: 91.9 ± 2.7%
- viability at 72 h, 2 μM [2]: 85 ± 4.5%
- viability at 72 h, 5 μM [2]: 84.7 ± 13.3%
- viability at 72 h, 10 μM [2]: 80.4 ± 9.9%
- viability at 72 h, 20 μM [2]: 74.9 ± 5.1%
- viability at 72 h, 50 μM [2]: 39.1 ± 10.6%
- inhibition at 10 µM ([3]; HepG2, 2 h): 91.8%
- inhibition at 10 µM ([3]; HepG2, 6 h): 94%
- inhibition at 10 µM ([3]; HepG2, 12 h): 93.3%
- inhibition at 1 µM ([3]; HepG2, 24 h): 50.7%
- inhibition at 5 µM ([3]; HepG2, 24 h): 73.2%
- inhibition at 10 µM ([3]; HepG2, 24 h): 87.2%
- inhibition at 50 µM ([3]; HepG2, 24 h): 95.8%
- inhibition at 1 µM ([3]; HepG2, 48 h): -15.3%
- inhibition at 5 µM ([3]; HepG2, 48 h): 48.5%
- inhibition at 10 µM ([3]; HepG2, 48 h): 69.4%
- inhibition at 50 µM ([3]; HepG2, 48 h): 85.1%
- [^3H]cholesterol ([3]; lovastatin 1 μM, 24 hr): 30.14 10^2 dpm/10^5 cells/hr
- [^3H]cholesterol ([3]; lovastatin 1 μM, 48 hr): 70.43 10^2 dpm/10^5 cells/hr
- [^3H]cholesterol ([3]; lovastatin 5 μM, 24 hr): 16.39 10^2 dpm/10^5 cells/hr
- [^3H]cholesterol ([3]; lovastatin 5 μM, 48 hr): 31.46 10^2 dpm/10^5 cells/hr
- [^3H]cholesterol ([3]; lovastatin 10 μM, 2 hr): 5.00 10^2 dpm/10^5 cells/hr
- [^3H]cholesterol ([3]; lovastatin 10 μM, 6 hr): 3.67 10^2 dpm/10^5 cells/hr
- [^3H]cholesterol ([3]; lovastatin 10 μM, 12 hr): 4.07 10^2 dpm/10^5 cells/hr
- [^3H]cholesterol ([3]; lovastatin 10 μM, 24 hr): 7.83 10^2 dpm/10^5 cells/hr
- [^3H]cholesterol ([3]; lovastatin 10 μM, 48 hr): 18.71 10^2 dpm/10^5 cells/hr
- [^3H]cholesterol ([3]; lovastatin 50 μM, 24 hr): 2.54 10^2 dpm/10^5 cells/hr
- [^3H]cholesterol ([3]; lovastatin 50 μM, 48 hr): 9.13 10^2 dpm/10^5 cells/hr

Source: patent publication US20020173538A1, “Method for sensitizing cancer cells to cancer therapies with a mevalonate-reducing compound” (priority 2000, published 2002)
